Assay results reported in ChEMBL document CHEMBL3046069, “Anti-inflammatory effects of two new methyl and morpholine derivatives of diphenhydramine on rats” (2012).
The source made the active and inactive calls. No cut-off for these calls is given here.

How the values were obtained:
[1] = system: Rattus norvegicus; assay: Anti-inflammatory activity in Rattus norvegicus Wistar (rat) assessed as inhibition of histamine-induced dye extrusion from plantar surface of paws at 25 mg/kg, ip administered 30 min […] measured after 30 min by Evans blue dye-based spectroscopic analysis; type: functional; conditions: route intraperitoneal
[2] = system: Rattus norvegicus; assay: Anti-inflammatory activity in Rattus norvegicus Wistar (rat) assessed as inhibition of formalin-induced dye extrusion from plantar surface of paws at 25 mg/kg, ip administered 30 min prior to formalin challenge measured after 30 min by Evans blue dye-based spectrophotometric analysis; type: functional; conditions: route intraperitoneal
[3] = system: Rattus norvegicus; assay: Anti-inflammatory activity in Rattus norvegicus Wistar (rat) assessed as cotton pellet-induced dry weight of granuloma administered 7 days post cotton pellet implantation measured on day 8 (reference value: […]); type: functional
[4] = system: Rattus norvegicus; assay: Anti-inflammatory activity in Rattus norvegicus Wistar (rat) assessed as inhibition of acetic acid-induced dye extrusion into peritonial cavity administered 30 min prior to acetic acid challenge measured after 30 min by Evans blue dye-based spectrophotometric analysis relative to control; type: functional
[5] = system: Rattus norvegicus; assay: Anti-inflammatory activity in Rattus norvegicus Wistar (rat) assessed as inhibition of […]-induced ear edema administered 30 min prior to […] challenge measured after 30 min by Evans blue dye-based spectrophotometric analysis relative to control; type: functional, organism-based
[6] = system: Rattus norvegicus; assay: Anti-inflammatory activity in Rattus norvegicus Wistar (rat) assessed as inhibition of formalin-induced paw edema at 25 mg/kg, ip administered 30 min prior to formalin challenge measured at 1 hr relative to control; type: functional; conditions: route intraperitoneal
[7] = system: Rattus norvegicus; assay: Anti-inflammatory activity in Rattus norvegicus Wistar (rat) assessed as inhibition of histamine-induced paw edema at 25 mg/kg, ip administered 30 min […] measured at 1 hr relative to control; type: functional; conditions: route intraperitoneal

SMILES | inhibition in vivo at 25 mg/kg [1] [%] | inhibition in vivo at 25 mg/kg [2] [%] | Activity [3] [mg] | inhibition (INH) [4] [%] | inhibition [5] | inhibition in vivo at 25 mg/kg [6] [%] | inhibition in vivo at 25 mg/kg [7] [%] | inhibition [4]
Cc1ccc(C(OCCN2CCOCC2)c2ccc(C)cc2)cc1 | 60 | 60 | 71 | 63.26 | inactive | – | – | –
CN(C)CCOC(c1ccccc1)c1ccc(Br)cc1 (configuration not stated) [BROMODIPHENHYDRAMINE] | – | – | – | – | inactive | 14.3 | 22.4 | Active
Cc1ccc(C(OCCN(C)C)c2ccc(C)cc2)cc1 [DI(P-TOLYL)(DIMETHYLAMINOETHOXY)METHANE] | 57.1 | 66.7 | 73.2 | 65.3 | inactive | 34.7 | 40.8 | –
CN(C)CCOC(c1ccccc1)c1ccccc1 [DIPHENHYDRAMINE] | – | – | 76.2 | – | – | – | – | –
